In patent publication US20190382827A1, “USE OF MICROBIAL METABOLITES FOR TREATING DISEASES” (Yeda Research and Development Co. Ltd., priority 2015, published 2019):
Entries after “also recorded” stand apart in the source; their conditions may differ.

How the values were obtained:
[1] = system: NLRP6 inflammasome; assay: Colon explants cultured with metabolites (IL-18 ELISA, caspase-1 immunoblot, gene expression); format: cell-based, mouse; conditions: for IL-18 protein levels: Nlrp3-/- explants; for IL-18 suppression with increasing doses: colonic explant-based validation screen; for IL-18 transcript (mRNA) levels / caspase-1 cleavage / processing: colonic explants; for caspase-1 cleavage / processing: 12 hours incubation, immunoblot p45/p20; for suppression of IL-18 secretion, metabolite screen: cultured WT colon explants
Experimental: Colons were excised and washed thoroughly with PBS, homogenized in RIPA buffer containing protease inhibitors, incubated for 20 min in 4° C. and centrifuged for 20 min, 14,000 rpm at 4° C. Samples were separated on 15% acrylamide gels and transferred onto nitrocellulose membranes. Western blot analysis was performed using anti-caspase 1 p20 polyclonal antibody (Adipogen, AG-20B-0042B-C100) and Goat anti mouse antibody (Jackson ImmunoResearch, 115-035-003). Band density was calculated using ImageJ software. Colon pieces, 0.5 cm long, from the proximal colon were removed, rinsed with PBS, and weighed. The tissue explants were cultured for 24 hrs in DMEM medium containing 10% FBS, L-glutamine, penicillin, and streptomycin at 37° C. Culture medium was collected, centrifuged and the resulting supernatant stored in aliquots at -20° C. Concentrations of IL-18 in the serum or culture supernatants were measured using ELISA. […] Samples were then washed and plates were incubated with anti-mouse IL-18-biotin antibody ([…]-6 MBL) for 1 hour and HRP-Avidin (BioLegend) for 1 hour before quantification. […] For AMP induction in-vitro, 3 μg IL-18 were added to colon explants for 7 hours, then the explants were maintained in RNAlater and RNA was extracted. Tissues were preserved in RNAlater solution (Ambion) and subsequently homogenized in Tri Reagent (Fox et al.). RNA was purified according to the manufacturer's instructions. Two microgram of total RNA was used to generate cDNA (HighCapacity cDNA Reverse Transcription kit; Applied Biosystems). RealTime-PCR was performed using gene-specific primer/probe sets (Applied Biosystems) and Kapa Probe Fast qPCR kit (Kapa Biosystems) on a Viia7 instrument (Applied Biosystems). PCR conditions were 95° C. for 20 s, followed by 40 cycles of 95° C. for 3 s and 60° C. for 30 s. Data were analyzed using the deltaCt method with hprt serving as the reference housekeeping gene.

[2] = system: colon explants; format: cell-based, mouse
Experimental: (F) FACS quantification of propidium iodide positive cells obtained from colon explants incubated for 10 hrs with PBS or taurine.
(F) FACS quantification of propidium iodide positive cells obtained from colon explants incubated for 10 hrs with either PBS, spermine or histamine.

[3] = system: intestinal microbiota; assay: 16S analysis of microbiota of mice given metabolites in drinking water; format: in vivo, mouse
Excerpt: Frozen fecal samples were processed for DNA isolation using the MoBio PowerSoil kit according to the manufacturer's instructions. For the 16S rRNA gene PCR amplification, ing of the purified fecal DNA was used for PCR amplification. Amplicons spanning the variable region 1/2 (V1/2) of the 16S rRNA gene were generated by using the following barcoded primers: Fwd 5′-XXXXXXXXAGAGTTTGATCCTGGCTCAG-3′ (SEQ ID NO: 1), Rev 5′-[…]-3′ (SEQ ID NO: 2), where X represents a barcode base. The reactions were subsequently pooled and cleaned (PCR clean kit, Promega), and the PCR products were then sequenced on an Illumina MiSeq in 500 bp paired-end method. The reads were then processed using the QIIME (Quantitative Insights Into Microbial Ecology, www(dot)qiime(dot)org) analysis pipeline as described (Caporaso et al., 2010; Elinav et al., 2011). In brief, fasta quality files and a mapping file indicating the barcode sequence corresponding to each sample were used as inputs, reads were split by samples according to the barcode, taxonomical classification was performed using the RDP-classifier, and an OTU table was created. Closed-reference OTU mapping was employed using the Greengenes database. Rarefaction was used to exclude samples with insufficient count of reads per sample. Sequences sharing 97% nucleotide sequence identity in the V2 region were binned into operational taxonomic units (97% ID OTUs). For beta-diversity, weighted unifrac measurements were plotted according to the two principal coordinates based on 1,000 reads per sample. The OTU tables used for our analyses are made accessible online.

[4] = system: DSS colitis; assay: DSS colitis; format: in vivo, mouse
Experimental: For IL-18 rescue experiments, recombinant IL-18 (MBL, Cat#B004-2) was injected intraperitoneally at a concentration of 1 μg per mouse for 5 days, and not injected for 2 days prior to DSS treatment. IL-18 injection to Swiss Webster germ-free mice and Nlrp6^−/− mice was performed twice a day for 3 days, while the mice were kept sterile using a cage-autonomous system (Hecht et al., 2014).
Mice were treated with 1.5% (w/v) DSS (M.W.=36,000-50,000 Da; MP Biomedicals) in their drinking water for 7 days followed by regular access to water. The animals were weighed daily and monitored for signs of distress as well as rectal bleeding.
For DSS rescue experiments, mice were receiving taurine in the drinking water prior to DSS treatment in a concentration of 100 mg/ml for 14 days.
Colonoscopy was performed using a high-resolution mouse video endoscopic system (Carl Storz, Tuttlingen, Germany). The severity of colitis was blindly scored using MEICS (Murine Endoscopic Index of Colitis Severity), which is based on five parameters: granularity of mucosal surface; vascular pattern; translucency of the colon mucosa; visible fibrin; and stool consistency (Becker et al., 2006).
On the day of the assay, 4 kDa fluorescein isothiocyanate (FITC)-dextran was dissolved in phosphate buffered saline (PBS) to a concentration of 80 mg ml^−1. Mice were fasted for 4 hours prior to gavage with 150 μl dextran. Mice were anesthetized 3 hours following gavage and blood was collected, centrifuged at 1,000×g for 12 min at 4° C. Serum was collected and fluorescence was quantified at an excitation wavelength of 485 nm and 535 nm emission wavelength.
DNA was extracted from liver samples (using MoBio PowerSoil kit). DNA concentration was calculated using a standard curve of known DNA concentrations from E. coli K12. 16S qPCR using primers identifying different regions of the V6 16S gene was performed using Kappa SYBR fast mix.
Absolute number of bacteria in the samples was then approximated as DNA amount in a sample/DNA molecule mass of bacteria.

[5] = WT mice, DSS colitis, taurine in drinking water
[6] = WT mice, taurine in drinking water for two weeks, then DSS colitis

## NCCCNCCCCNCCCN [spermine]
[1]
  IL-18 protein levels: decreased
  IL-18 suppression with increasing doses: concentration-dependent IL-18 suppressive functions
  IL-18 transcript (mRNA) levels: no change
  caspase-1 cleavage / processing: reduced
  suppression of IL-18 secretion, metabolite screen: strongest suppressors
[2]
  cell death: no change
[3]; WT mice
  composition of the intestinal microbiota: induced compositional changes

## NCCc1c[nH]cn1 [histamine]
[1]
  IL-18 protein levels: decreased
  IL-18 suppression with increasing doses: concentration-dependent IL-18 suppressive functions
  IL-18 transcript (mRNA) levels: no change
  caspase-1 cleavage / processing: reduced
  suppression of IL-18 secretion, metabolite screen: strongest suppressors
[2]
  cell death: no change
[3]; WT mice
  composition of the intestinal microbiota: induced compositional changes
[4]; WT mice concomitantly treated with antibiotics
  exacerbation of DSS colitis: prevented
[4]; WT mice, histamine treatment
  DSS colitis: exacerbated

## NCCS(=O)(=O)O [taurine]
[1]; WT explants cultured for 8 hours
  AMPs (Ang4) expression: induced upregulation
[1]; WT, Nlrp6-/- and Nlrp3-/- colon explants
  dependence of IL-18 induction on NLRP6 / NLRP3: dependent on NLRP6, but not on NLRP3
[1]; colon explants cultured with histamine and spermine, with addition of taurine
  inflammasome suppression (IL-18 production) by spermine or histamine upon concomitant taurine: rescued
[1]
  caspase-1 cleavage / processing: enhanced
[1]; sterile WT colonic explants, metabolite screen and increasing doses
  IL-18 induction: strongest dose-dependent inductive activity
[3]; Asc-/- or Nlrp6-/- mice
  composition of the intestinal microbiota: did not occur
[3]; WT mice
  composition of the intestinal microbiota: induced compositional changes
[4]; GF WT mice
  beneficial effects on DSS colitis: failed to have beneficial effects
[4]; WT mice treated with broad-spectrum antibiotics
  beneficial effects on DSS colitis: failed to have beneficial effects
[4]; [5]
  hepatic bacterial load: decreased
  systemic FITC-dextran influx: reduced
[4]; WT mice, DSS colitis, taurine in drinking water, ZO-1 staining
  epithelial tight junction integrity: sustained
[4]; WT mice, taurine administration stopped before induction of DSS colitis
  beneficial effects on DSS colitis: beneficial effects were also observed
[4]; [6]
  colitis severity: ameliorated; also recorded: reduced
  weight loss: improved
[4]; WT mice, taurine in drinking water, DSS
  survival: enhanced
[4]; mice lacking either ASC or NLRP6
  beneficial effects on DSS colitis: failed to have beneficial effects
